The text below walks through data of patent publication US20230167437A1, “COMPOSITIONS FOR TREATING CANCER WITH KRAS MUTATIONS AND USES THEREOF” (Aadigen, LLC, priority 2020, published 2023).

“And” between values parts separate entries of the source, which are not always exact repeats. Identical values can stand only once. Bounds are passed on as bounds.

One series has as its system KRAS 35G>A mutant G12D. The series is described as follows: Indel frequencies at the endogenous target sequences (T7E1 / deep sequencing) after ADGN/Cas9 mRNA/gRNA transfection. Conditions: for indel frequencies: deep sequencing, 72 hours after transfection, Cas9 mRNA 0.1 μg, gRNA 0.2 μg. Format: cell-based, human. On the procedure: Complex formation with mRNA:gRNA: ADGN peptide/mRNA/gRNA particles were prepared at a 20:1:1 molar ratio. ADGN/Cas9mRNA/sgRNA complexes were prepared at a 20/1/1 molar ratio with 0.5 μg mRNA: 1.5 μg sgRNA and 5% Glucose or DMEM (example for 96 well plates). […] Premixed Cas9 mRNA/gRNA were prepared in sterile water at room temperature in a glass vial (1-4 ml). ADGN-peptide solution was added dropwise (1 drop/sec) under magnetic agitation at 400 rpm to obtain a 1:2 ratio, and incubated for 30 min at room temperature or 37° C. Just before transfection, 150 μl Glucose or DMEM was added and the solution was mixed under magnetic agitation at 400 rpm for 1 minute. Then the solution was incubated for 5 min at 37° C. Then the complexes was ready for cell transfection or IV administration. Prior to IV administration, complexes were diluted in sucrose 5% solution.
Transfection protocol. The following protocols are reported for 24/48/96 well plate format transfection. Cells should be trypsinized and seeded a day prior transfection Cells were cultured in Dulbecco's Modified Eagle's Medium (DMEM), supplemented with 2 mM glutamine, 1% antibiotics (streptomycin 10,000 μg/mL, penicillin, 10,000 IU/mL) and 10% (w/v) foetal calf serum (FCS), at 37° C. in a humidified atmosphere containing 5% CO2. 96 well plates seeded with 50,000 cells, the day prior transfection, grown to 60-80% confluence and set up to be at around 70% confluence at the day of transfection. Before transfection, cells are washed twice with DMEM (without FBS and pen/strep) (100 μl/well). Cells were then overlaid with 25 μl of complex solution, mixed gently and incubated for 10 min at 37° C.+5% CO2. 50 μl of fresh DMEM (without FBS and Antibiotics) was added and cells were incubated for 2 h at 37° C.+5% CO2 (time of exposure can be adjusted based on sensitivity of the cells). 250 μL of DMEM (containing 10% FCS and 1% antibiotics) were then added without removing the overlay of ADGN peptide/mRNA complexes. Cells were returned to the incubator (37° C., 5% CO2) and analyzed 48 hours to 72 hours post transfection.
Nine different gRNAs targeting KRAS 35G>A mutant G12D (gRNA35A1, gRNA35A2, gRNA35A3, gRNA35A4, gRNA35A5, gRNA35A6; gRNA35A7, gRNA35A8, gRNA35A9) were evaluated on LS513, Panc1, PK-45H, and PK1 cancer cells harboring G12D KRAS mutation. Cas9 mRNA (0.1 μg) and gRNA (0.2 μg) were associated with ADGN-peptide at molar ratio 20/1 (peptide/nucleic acid). LS513, Panc1, PK-45H, PK1, HS-68 and HT-29 cells were cultured in 48 well plate format and treated with free mRNACas9-gRNA, or ADGN/mRNACas9:gRNA complex. Indel frequencies at the endogenous target sequences was evaluated 72 hours after transfection by either T7E1 method or deep sequencing. Cell proliferation was analyzed over a period of 5 days using CellTiter Glow kits on GlowMax (Promega).
In order to confirm the specificity of sgRNAs targeting G12V, G12C or G12D KRAS mutation, gRNA35T3 targeting G12V, gRNA34T6 targeting G12C, and gRNA35A5 targeting G12D were evaluated on a large panel of cancer cells harboring different KRAS mutations including SW403, SW480, PANC1, PK-45H, PK-1, MIA-PACA, H23, H358, HT-29, HS-68 and LS513. Cas9 mRNA (0.2 μg) and gRNA (0.4 μg) were associated with ADGN peptide at molar ratio 20/1 (peptide/nucleic acid). Cells were cultured in 48 well plate format and treated with free mRNACas9-gRNA, or ADGN/mRNACas9:gRNA complex. Indel frequencies at the endogenous target sequences was evaluated 72 hours after transfection by either T7E1 method and cell proliferation was analyzed over a period of 5 days using CellTiter Glow kits on GlowMax (Promega).

A further series deals with wild type KRAS. The series is described as above. Format: cell-based, human. The note with it: deep sequencing, 72 hours after transfection, Cas9 mRNA 0.1 μg, gRNA 0.2 μg. The gist of the method: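 Cas9 mRNA and gRNA complexed with ADGN peptide (20:1 molar ratio) and transfected into KRAS-mutant (G12V or G12D) and other cancer cell lines in 48-well format, 2 h exposure in serum-free DMEM. Indels at endogenous target sites measured 72 h post-transfection by T7E1 or deep sequencing.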

“AGT TGG AGC TGA TGG CGT (guide AGTTGGAGCTGATGGCGT; chemistry not given here) [gRNA35A5, sgRNA target KRAS G12D mutation (35G>A); PAM AGG]”: in the series with KRAS 35G>A mutant G12D (G12D cancer cells vs wild type KRAS cells (HT29 or HS-68)), the “disruption of G12D mutant KRAS (FIG. 2A)” value is recorded as “induced efficient disruption of G12D mutant KRAS”. Moreover, the indel frequency is listed as > 70% with KRAS 35G>A mutant G12D (KRAS G12D mutated cancer cells); > 75% in the series with KRAS 35G>A mutant G12D (PANC-1, PK-1, and PK-45H cells, T7E1, 72 hours, Cas9 mRNA 0.2 μg, gRNA 0.4 μg). The indel frequencies in the series with KRAS 35G>A mutant G12D (LS513 cells) is 35 ± 4%; with KRAS 35G>A mutant G12D (PANC1 cells), 67% and 67 ± 5%; in the series on KRAS 35G>A mutant G12D (PK1 cells) it was 78% and 78 ± 8%; with KRAS 35G>A mutant G12D (PK-45H cells), 75% and 75 ± 7%; with wild type KRAS (HS68 cells (WT KRAS)) it was 2 ± 1%; in the series on wild type KRAS (HT-29 cells (WT KRAS)), 2 ± 1%.
